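Briefly, cells in 96-well plates were exposed to five compound concentrations for 48 h, and endpoints were estimated by linear interpolation. Here, GI50 denotes the concentration required for 50% inhibition of growth. TGI: total growth inhibition.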
test system: SF-539 CNS; test: DTP human tumour cell line panel, 48 h

Compared with `Cc1[nH]c(N=Nc2ccccc2)nc1N=Nc1ccccc1`, `COc1ccc(-c2cc3c(nn2)-c2ccccc2C3=O)cc1` is higher in GI50: 2600 nM for the first, greater than 100000 nM for the second.

Going from `COc1ccc(S(=O)(=O)N(Cc2ccc3c(n2)C=CC(C)(C)O3)C2CCC2)cc1OC` to `COc1ccc(C2CC(=O)c3c(O)c(OC)c(OC)c(OC)c3O2)c(O)c1` (stereo not given), the GI50 rises from less than 10 nM to 140 nM.

With `O=C(CCCSc1nc(-c2ccc(Cl)cc2)cc(-c2ccc(Cl)cc2)n1)NO` the GI50 was 1260 nM.

Compared with `Cc1[nH]c(N=Nc2ccccc2)nc1N=Nc1ccccc1`, `COc1ccc(-c2cc3c(nn2)-c2ccccc2C3=O)cc1` is higher in TGI: 6.93 µM for the first, greater than 100 µM for the second.

`CC(=O)SCCC1c2[nH]c3ccccc3c2CCN1O` (stereo not given) and `CC(=O)c1ccc(NC(=O)/C(Cc2ccccn2)=N/NC(=O)C[N+](C)(C)C)cc1` cannot be ordered by TGI: greater than 100 µM for the first, greater than 100 µM for the second.

Going from `COc1ccc(S(=O)(=O)N(Cc2ccc3c(n2)C=CC(C)(C)O3)C2CCC2)cc1OC` to `COc1ccc(C2CC(=O)c3c(O)c(OC)c(OC)c(OC)c3O2)c(O)c1` (stereo not given), the TGI rises from 0.378 µM to 9.39 µM (25-fold).

Compared with `O=C1C2=C(CC3C(C2)C3(Br)Br)C(=O)C2=C1CC1C(C2)C1(Br)Br` (stereo not given), `O=C(CCCSc1nc(-c2ccc(Cl)cc2)cc(-c2ccc(Cl)cc2)n1)NO` is lower in TGI: greater than 100 µM for the first, 4.93 µM for the second.

test system: TK-10 renal; test: DTP human tumour cell line panel, 48 h

Going from `Cc1cc(C2CCCCC2)n(O)c(=O)c1` to `COc1ccc(S(=O)(=O)N(Cc2ccc3c(n2)C=CC(C)(C)O3)C2CCC2)cc1OC`, the GI50 falls from 9.91 µM to less than 0.01 µM.

First: CC(=O)[O][Hg][c]1c(C)c(C)c(C)c(C)c1C
Second: COc1ccc(C2CC(=O)c3c(O)c(OC)c(OC)c(OC)c3O2)c(O)c1 (stereo not given)
The GI50 of the first is 2.4-fold lower: 2.03 µM for the first, 4.96 µM for the second.

Going from `COc1cc(C(=O)O[C@H](C(N)=O)[C@]2(C)CO2)c2ccccc2c1` to `COc1ccc(-c2cc3c(nn2)-c2ccccc2C3=O)cc1`, the GI50 rises from 19.7 µM to greater than 100 µM.

Compared with `COc1cc2c(/C=C3/C(=O)Nc4cccc(Cl)c43)c(Cl)n(Cc3ccccc3)c2cc1C`, `Cc1[nH]c(N=Nc2ccccc2)nc1N=Nc1ccccc1` is 5.6-fold lower in GI50: 10.4 µM for the first, 1.85 µM for the second.

Work on `O=C(CCCSc1nc(-c2ccc(Cl)cc2)cc(-c2ccc(Cl)cc2)n1)NO` yielded a GI50 of 0.853 µM.

`Cc1cc(C2CCCCC2)n(O)c(=O)c1` and `CC(=O)SCCC1c2[nH]c3ccccc3c2CCN1O` (stereo not given) cannot be ordered by TGI: greater than 100 µM for the first, greater than 100 µM for the second.

`COC(=O)C(=O)C(C(=O)C=C(C)C)C(=O)C(=O)Nc1ccc(Cl)cc1C` (stereo not given) and `CC(=O)c1ccc(NC(=O)/C(Cc2ccccn2)=N/NC(=O)C[N+](C)(C)C)cc1` cannot be ordered by TGI: greater than 100 µM for the first, greater than 100 µM for the second.

First: CC(=O)[O][Hg][c]1c(C)c(C)c(C)c(C)c1C
Second: Cc1ccc(C(=O)/C=C/c2ccccc2O)c(C)c1
The TGI of the first is lower: 3.72 µM for the first, greater than 100 µM for the second.

First: COc1cc(C(=O)O[C@H](C(N)=O)[C@]2(C)CO2)c2ccccc2c1
Second: COc1ccc(-c2cc3c(nn2)-c2ccccc2C3=O)cc1
The TGI of the first is lower: 37.5 µM for the first, greater than 100 µM for the second.

Compared with `Cc1cccc(C(C)(C)C)c1NC(=O)CCc1n[nH]c(=S)o1`, `O=C(CCCSc1nc(-c2ccc(Cl)cc2)cc(-c2ccc(Cl)cc2)n1)NO` is lower in TGI: greater than 100 µM for the first, 17.2 µM for the second.

`CN(C)C(=S)SN(C)C(=O)Nc1ccccc1` and `Cc1[nH]c(N=Nc2ccccc2)nc1N=Nc1ccccc1` cannot be ordered by TGI: greater than 100 µM for the first, greater than 32.9 µM for the second.

First: O=S(O)CCCCSSCCCCSSCCCCS(=O)O
Second: COc1ccc(C2CC(=O)c3c(O)c(OC)c(OC)c(OC)c3O2)c(O)c1 (stereo not given)
The TGI of the first is 1.9-fold higher: 91.4 µM for the first, 49 µM for the second.

Compared with `COc1cc2c(/C=C3/C(=O)Nc4cccc(Cl)c43)c(Cl)n(Cc3ccccc3)c2cc1C`, `COc1ccc(S(=O)(=O)N(Cc2ccc3c(n2)C=CC(C)(C)O3)C2CCC2)cc1OC` is lower in TGI: greater than 76.2 µM for the first, 1.59 µM for the second.

`O=C1C2=C(CC3C(C2)C3(Br)Br)C(=O)C2=C1CC1C(C2)C1(Br)Br` (stereo not given) showed a TGI greater than 100 µM.

test system: OVCAR-5 ovarian; test: DTP human tumour cell line panel, 48 h

Going from `Cc1cc(C2CCCCC2)n(O)c(=O)c1` to `COc1ccc(S(=O)(=O)N(Cc2ccc3c(n2)C=CC(C)(C)O3)C2CCC2)cc1OC`, the GI50 falls from 6.13 µM to less than 0.01 µM.

Compared with `CC(=O)[O][Hg][c]1c(C)c(C)c(C)c(C)c1C`, `COc1ccc(C2CC(=O)c3c(O)c(OC)c(OC)c(OC)c3O2)c(O)c1` (stereo not given) is 1.7-fold higher in GI50: 3.33 µM for the first, 5.57 µM for the second.

Going from `COc1cc(C(=O)O[C@H](C(N)=O)[C@]2(C)CO2)c2ccccc2c1` to `COc1ccc(-c2cc3c(nn2)-c2ccccc2C3=O)cc1`, the GI50 rises from 11.5 µM to greater than 100 µM.

First: COc1cc2c(/C=C3/C(=O)Nc4cccc(Cl)c43)c(Cl)n(Cc3ccccc3)c2cc1C
Second: Cc1[nH]c(N=Nc2ccccc2)nc1N=Nc1ccccc1
The GI50 of the first is 3.7-fold higher: 24.4 µM for the first, 6.62 µM for the second.

`O=C(CCCSc1nc(-c2ccc(Cl)cc2)cc(-c2ccc(Cl)cc2)n1)NO` showed a GI50 of 1.42 µM.

`Cc1cc(C2CCCCC2)n(O)c(=O)c1` and `CC(=O)SCCC1c2[nH]c3ccccc3c2CCN1O` (stereo not given) cannot be ordered by TGI: greater than 100 µM for the first, greater than 100 µM for the second.

`COC(=O)C(=O)C(C(=O)C=C(C)C)C(=O)C(=O)Nc1ccc(Cl)cc1C` (stereo not given) and `CC(=O)c1ccc(NC(=O)/C(Cc2ccccn2)=N/NC(=O)C[N+](C)(C)C)cc1` cannot be ordered by TGI: greater than 100 µM for the first, greater than 100 µM for the second.

Compared with `CC(=O)[O][Hg][c]1c(C)c(C)c(C)c(C)c1C`, `Cc1ccc(C(=O)/C=C/c2ccccc2O)c(C)c1` is higher in TGI: 8.74 µM for the first, greater than 100 µM for the second.

Compared with `COc1cc(C(=O)O[C@H](C(N)=O)[C@]2(C)CO2)c2ccccc2c1`, `COc1ccc(-c2cc3c(nn2)-c2ccccc2C3=O)cc1` is higher in TGI: 33.1 µM for the first, greater than 100 µM for the second.

Going from `Cc1cccc(C(C)(C)C)c1NC(=O)CCc1n[nH]c(=S)o1` to `O=C(CCCSc1nc(-c2ccc(Cl)cc2)cc(-c2ccc(Cl)cc2)n1)NO`, the TGI falls from greater than 100 µM to 9.01 µM.

`CN(C)C(=S)SN(C)C(=O)Nc1ccccc1` and `Cc1[nH]c(N=Nc2ccccc2)nc1N=Nc1ccccc1` cannot be ordered by TGI: greater than 76 µM for the first, greater than 82.2 µM for the second.

Compared with `O=S(O)CCCCSSCCCCSSCCCCS(=O)O`, `COc1ccc(C2CC(=O)c3c(O)c(OC)c(OC)c(OC)c3O2)c(O)c1` (stereo not given) is lower in TGI: greater than 100 µM for the first, 93.4 µM for the second.

Going from `COc1cc2c(/C=C3/C(=O)Nc4cccc(Cl)c43)c(Cl)n(Cc3ccccc3)c2cc1C` to `COc1ccc(S(=O)(=O)N(Cc2ccc3c(n2)C=CC(C)(C)O3)C2CCC2)cc1OC`, the TGI falls from greater than 71.4 µM to 7.25 µM.

Work on `O=C1C2=C(CC3C(C2)C3(Br)Br)C(=O)C2=C1CC1C(C2)C1(Br)Br` (stereo not given) yielded a TGI greater than 100 µM.

Reference: PubChem BioAssay (NCI)
